In patent US8916604B2, “Compositions and methods for epigenetic modification of nucleic acid sequences” (Rutgers, The State University of New Jersey, priority 2011, dated 2014):

Tests used:
TRAMP mice = assay: DIM-supplemented diet, prostate tumorigenesis in TRAMP males; assay type: in vivo, mouse; conditions: for Incidence of palpable tumor: sacrificed at 24 weeks, control 6/19; for Incidence of lymph nodes metastasis: control 5/19; for histological incidence of HG-PIN: control 54%
Experimental: Female hemizygous C57BL/TGN TRAMP mice, line PB Tag 8247NG, and male C57BL/6 mice were purchased from The Jackson Laboratory (Bar Harbor, Me., U.S.A.). The animals were bred on the same genetic background C57BL/6 and maintained in the Laboratory Animal Service facility at Rutgers University. Housing and care of the animals was performed in accordance with the guidelines established by the University's Animal Research Committee consistent with the NIH Guidelines for the Care and Use of Laboratory Animals, Transgenic males for the studies were obtained as [TRAMP×C57BL/6] F1 or [TRAMP×C57BL/6] […] Throughout the experiment the animals were housed in a temperature-control led room (68-72° F.) with a 12 h light dark cycle, at a relative humidity of 45% to 55%.
DIM was obtained from Sigma-Aldrich (St. Louis, Mo., U.S.A.). MN-76A diets containing 1% DIM were prepared by Research Diets Inc. (New Brunswick, N.J., U.S.A.) and stored at −20° C. The dose was chosen based in part on studies reported previously Anderton et al., Drug Metab Dispos. 2004; 32: 632-8; and Xue et al., J Nutr Biochem. 2008; 19: 336-44). In our present study, 1% DIM was well-tolerated with these TRAMP mice. The control TRAMP males (n=19) received A1N-76A diets throughout the experiment while the treated TRAMP males received 1% DIM diet starting from eight weeks of age (n=9) as Group 1 (D-G1) and Group 2 (D-G2) starting from twelve weeks of age (n=8) (FIG. 12A). Fresh diets were added to the cages twice weekly.
TRAMP males were weighed weekly and the overall health of the animals was monitored on a regular basis. All mice were sacrificed at the age of 24 weeks by carbon dioxide euthanasia and the genitourinary apparatus (GU) consisting of the seminal vesicles, prostate, and bladder were isolated for further analyses (FIG. 12B).
The dorso-lateral prostate (n=5) was excised and fixed in 10% formalin for 24 b and then transferred to 70% ethanol for 24 h. After dehydration processing, and embedding with paraffin, tissue sections ([…]) were cut from paraffin embedded prostate tissue and mounted on slides. The sections were stained with Hematoxylin and Eosin (H&E) to examine any neoplastic changes. Sections were evaluated by a histopathologist in a blinded fashion to classify prostatic intra-epithelial neoplasia (PIN) lesion, as we have reported previously (8, 12, 13, 30), Lesions were classified as PIN I, PIN II, PIN III, and PIN IV (Park et al., Am J Pathol. 2002; 161: 727-35). For ease of classification, PIN I and PIN II were combined as low grade PIN (LG-PIN) while PIN III and PIN IV were combined as high grade PIN (HG-PIN) as we have performed previously (8, 12, 30, 31).

PCNA = assay: IHC staining of TRAMP prostate tissue, cell proliferation; assay type: in vivo, mouse; conditions: D-G1 (16 weeks) or D-G2 (12 weeks) vs control
Experimental: Sections (4 μm) were cut from the paraffin embedded prostate tissue and mounted on glass slides. The slides Were deparafinized in xylene and antigen unmasking was performed by applying proteinase K digestion directly on the slides for 15 min. Endogenous peroxidase was blocked by incubating in 3% […] for 5 min, and ApopTag Plus Peroxidase In Situ Apoptosis Detection Kit (Millipore, Temecula, Calif., U.S.A.) was used to detect apoptotic cells. For detection of proliferative cells, monoclonal mouse anti-proliferating cell nuclear antigen (PCNA) antibody (Clone PC10, 1:50, Dako North America, Carpinteria, Calif., U.S.A.) was used (12). The staining was performed following as the manufacturer's protocols. Anti-5-methylcytosine (5-MC) mouse monoclone antibody (Clone 162 33 D3, 1:50, EMD Chemicals, Philadelphia, Pa., U.S.A.) was used to detect genome-wide methylated DNA. […] Quantitation of IHC staining was done using the Aperio ScanScope® GL system according to the manufactures protocol (Aperio Technologies Inc., Vista, Calif., U.S.A.). […] The Aperio ImageScopoe software (v 10.1.3.2028) allowed the unbiased quantification and quantitative analysis of the IHC staining of biomarkers of prostate tumor samples obtained from untreated control versus the treated TRAMP mice.

[1] = tested on: first five CpGs of the Nrf2 gene promoter; assay: Bisulfite genomic sequencing of TRAMP prostate tissues; assay type: in vivo, mouse; conditions: control 98% methylation
Experimental: Genomic DNA was isolated from the control or DIM treated TRAMP C1 cells and TRAMP dorso-lateral prostate tissues collected from control and DIM treated groups pooled and homogenized using the DNeasy tissue kit (Qiagen, Valencia, Calif., U.S.A.). The genomic DNAs were extracted and subjected to bisulfite conversion carried out using 750 ng of genomic DNA and applying to EZ DNA Methylation Gold Kits (Zymo Research Corp., Orange, Calif., U.S.A.) following the manufacturer's instructions. The converted DNA was amplified by PCR utilizing Platinum PCR SuperMix (Invitrogen, Grand Island, N.Y., U.S.A.) with a set of specific primers, forward: 5′-AGTTATGAAGTAGTAGTAAAAA-3′ (SEQ ID NO: 37) and reverse: 5′-AATATAATCTCATAAAACCCCAC-3 (SEQ ID NO: 38), amplifying the first five CpGs located between −1266 and −1086 of the promoter region of Nrf2 with the translation initiation site defined as +1 (14, 20). Gel extraction using Qiaquick™ gel extraction kit (Qiagen, Valencia, Calif., U.S.A.) were used to purify the PCR products, then cloned into pCR4 TOPO vector using a TOPO™ TA Cloning kit (Invitrogen, Grand Island, N.Y., U.S.A.), Plasmids DNA from at least twenty colonies per for treatment were prepared using QIAprep Spin Miniprep Kit (Qiagen, Valencia Calif., U.S.A.) and sequenced (Genwiz, Piscataway, N.J., U.S.A.).

[2] = oral, 2 mg/kg/day; cited from earlier work
[3] = D-G2: 1% DIM diet from 12 weeks of age, p<0.05

c1ccc2c(Cc3c[nH]c4ccccc34)c[nH]c2c1 [DIM, 3,3′-diindolylmethane]
Incidence of palpable tumor (TRAMP mice; D-G1: 1% DIM diet from 8 weeks of age): 1/9^a,
Incidence of lymph nodes metastasis (TRAMP mice; D-G1: 1% DIM diet from 8 weeks of age, p<0.05): 0/9^b, #
histological incidence of carcinoma (TRAMP mice; D-G1, control 46%): 20%
histological incidence of HG-PIN (TRAMP mice; D-G1): 20%
wet genitourinary apparatus (GU) weight (TRAMP mice; D-G1 and D-G2 vs non-treated control, p<0.05): statistically significant decrease
histological incidence of LG-PIN (TRAMP mice; D-G2): 20%
histological incidence of carcinoma (TRAMP mice; D-G2): no carcinoma
Incidence of palpable tumor (TRAMP mice; [3]): 0/8^a, *
Incidence of lymph nodes metastasis (TRAMP mice; [3]): 0/8^b, #
histological incidence of HG-PIN (TRAMP mice; D-G2): 80%
incidence of lymph node metastasis (TRAMP mice; DIM-treated mice overall vs 26.3% in control): 0%
percentage of palpable tumor (TRAMP mice; DIM-treated mice overall vs 31.6% in control): 5.8%
PCNA staining (cell proliferation) (PCNA): significantly lower levels
methylation of the first five CpGs of Nrf2 promoter ([1]; D-G1): 37.6%
methylation of the first five CpGs of Nrf2 promoter ([1]; D-G2): 54.4%
tolerability [2]: well tolerated with no significant toxicity
